Measurements reported in ChEMBL document CHEMBL3991601, “The target landscape of clinical kinase drugs” (Science, 2017).
Counter-ions that a name gives are not always drawn. Calls of active or inactive are those of the source.

Columns and labels:
[1] = molecular target: T1, Phosphatidylinositol 5-phosphate 4-kinase type-2 alpha (Homo sapiens, UniProt P48426)
T1 sequence (P48426 whole entry): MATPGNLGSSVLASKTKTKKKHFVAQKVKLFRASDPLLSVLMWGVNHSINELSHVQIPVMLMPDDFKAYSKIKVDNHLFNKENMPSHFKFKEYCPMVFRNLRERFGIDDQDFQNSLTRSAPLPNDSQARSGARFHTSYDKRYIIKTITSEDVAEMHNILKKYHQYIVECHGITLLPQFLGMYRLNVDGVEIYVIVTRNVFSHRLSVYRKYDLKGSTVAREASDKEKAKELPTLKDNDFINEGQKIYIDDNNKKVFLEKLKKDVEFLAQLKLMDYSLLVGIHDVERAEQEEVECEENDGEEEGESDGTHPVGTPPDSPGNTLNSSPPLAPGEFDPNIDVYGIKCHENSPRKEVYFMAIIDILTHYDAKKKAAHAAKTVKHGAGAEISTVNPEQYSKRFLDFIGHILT

[2] = molecular target: T2, Mitogen-activated protein kinase kinase kinase kinase 3 (Homo sapiens, UniProt Q8IVH8)
T2 sequence (Q8IVH8 whole entry): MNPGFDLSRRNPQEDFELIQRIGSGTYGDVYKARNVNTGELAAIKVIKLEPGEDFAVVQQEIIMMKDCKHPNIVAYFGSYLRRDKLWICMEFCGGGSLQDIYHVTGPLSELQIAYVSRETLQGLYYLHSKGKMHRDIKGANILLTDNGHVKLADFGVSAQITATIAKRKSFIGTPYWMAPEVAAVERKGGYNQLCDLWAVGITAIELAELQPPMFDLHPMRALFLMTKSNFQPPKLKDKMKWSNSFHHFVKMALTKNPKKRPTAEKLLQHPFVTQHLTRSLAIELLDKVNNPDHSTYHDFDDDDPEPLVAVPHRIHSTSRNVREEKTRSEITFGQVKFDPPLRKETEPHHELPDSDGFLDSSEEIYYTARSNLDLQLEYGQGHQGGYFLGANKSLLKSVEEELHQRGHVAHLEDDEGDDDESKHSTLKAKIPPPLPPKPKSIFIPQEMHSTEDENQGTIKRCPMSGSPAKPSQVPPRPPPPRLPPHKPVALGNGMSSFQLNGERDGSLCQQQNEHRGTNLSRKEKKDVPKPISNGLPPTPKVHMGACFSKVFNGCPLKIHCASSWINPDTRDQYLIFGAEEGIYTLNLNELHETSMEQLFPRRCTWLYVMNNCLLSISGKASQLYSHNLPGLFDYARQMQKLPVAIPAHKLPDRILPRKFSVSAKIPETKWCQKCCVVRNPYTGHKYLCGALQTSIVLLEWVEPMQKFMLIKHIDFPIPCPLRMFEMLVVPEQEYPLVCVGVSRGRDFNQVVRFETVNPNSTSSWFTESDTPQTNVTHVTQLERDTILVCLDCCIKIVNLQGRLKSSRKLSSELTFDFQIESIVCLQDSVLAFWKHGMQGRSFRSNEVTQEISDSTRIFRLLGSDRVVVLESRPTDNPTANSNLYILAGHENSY

[3] = molecular target: T3, Serine/threonine-protein kinase NLK (Homo sapiens, UniProt Q9UBE8)
T3 sequence (Q9UBE8 whole entry): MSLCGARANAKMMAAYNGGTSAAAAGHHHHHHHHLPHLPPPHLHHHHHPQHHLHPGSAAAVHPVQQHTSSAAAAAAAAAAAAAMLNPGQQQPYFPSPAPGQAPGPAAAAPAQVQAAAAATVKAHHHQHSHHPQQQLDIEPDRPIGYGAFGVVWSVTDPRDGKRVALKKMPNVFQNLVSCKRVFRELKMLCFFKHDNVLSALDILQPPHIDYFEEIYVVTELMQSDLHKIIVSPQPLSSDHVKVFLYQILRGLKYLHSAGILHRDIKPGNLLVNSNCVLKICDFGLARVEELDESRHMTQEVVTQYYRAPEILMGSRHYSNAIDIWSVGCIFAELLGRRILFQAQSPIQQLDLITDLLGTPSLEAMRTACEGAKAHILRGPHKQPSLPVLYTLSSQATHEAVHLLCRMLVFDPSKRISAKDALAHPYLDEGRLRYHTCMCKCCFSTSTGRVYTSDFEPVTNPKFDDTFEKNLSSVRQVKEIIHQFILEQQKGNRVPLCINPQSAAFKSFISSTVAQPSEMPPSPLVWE

[4] = molecular target: Mitogen-activated protein kinase 14 (Homo sapiens, UniProt Q16539)
[5] = molecular target: T4, Ras-related protein Rab-27A (Homo sapiens, UniProt P51159)
T4 sequence (P51159 whole entry): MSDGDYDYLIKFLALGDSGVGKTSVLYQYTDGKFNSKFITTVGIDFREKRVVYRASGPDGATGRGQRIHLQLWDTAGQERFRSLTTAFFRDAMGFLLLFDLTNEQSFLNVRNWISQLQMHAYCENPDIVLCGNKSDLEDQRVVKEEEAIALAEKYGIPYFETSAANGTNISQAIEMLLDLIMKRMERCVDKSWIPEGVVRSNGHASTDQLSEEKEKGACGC
Note: in the data inactive means no Kd found up to 30 µM.

Sequence of Mitogen-activated protein kinase 14 (Q16539 whole entry): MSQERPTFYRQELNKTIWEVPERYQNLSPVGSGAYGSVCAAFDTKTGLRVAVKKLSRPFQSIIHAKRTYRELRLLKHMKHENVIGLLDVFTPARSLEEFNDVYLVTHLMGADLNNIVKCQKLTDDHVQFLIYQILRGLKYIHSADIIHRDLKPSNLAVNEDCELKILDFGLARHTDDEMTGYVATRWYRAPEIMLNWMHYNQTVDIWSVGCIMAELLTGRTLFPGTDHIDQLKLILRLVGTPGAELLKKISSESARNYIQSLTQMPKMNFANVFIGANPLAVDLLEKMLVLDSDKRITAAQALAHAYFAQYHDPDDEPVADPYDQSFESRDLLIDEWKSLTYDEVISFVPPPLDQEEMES

Row | Structure (SMILES) | Kd [1] | Kd [2] | Kd [3] | Kd [4] | Kd [5]
1 | NC(=O)Nc1cc(-c2cccc(F)c2)sc1C(=O)N[C@H]1CCCNC1 [AZD-7762] | > 30 µM (inactive) | 0.363 µM (active) | > 30 µM (inactive) | > 30 µM (inactive) | > 30 µM (inactive)
2 | Cn1cnc2c(F)c(Nc3ccc(Br)cc3F)c(C(=O)NOCCO)cc21 [BINIMETINIB] | > 30 µM (inactive) | > 30 µM (inactive) | > 30 µM (inactive) | > 30 µM (inactive) | > 30 µM (inactive)
3 | Cc1cc(Nc2ncc(Cl)c(Nc3ccccc3S(=O)(=O)C(C)C)n2)c(OC(C)C)cc1C1CCNCC1 [CERITINIB] | > 30 µM (inactive) | > 30 µM (inactive) | > 30 µM (inactive) | > 30 µM (inactive) | > 30 µM (inactive)
4 | COc1c(OCCCN2CCOCC2)ccc2c1N=C(NC(=O)c1cnc(N)nc1)N1CCN=C21 [COPANLISIB] | > 30 µM (inactive) | > 30 µM (inactive) | > 30 µM (inactive) | > 30 µM (inactive) | 4.49 µM
5 | CCS(=O)(=O)N1CCN(c2ccc(Nc3ncc(C(N)=O)c(NC4CC4)n3)cc2)CC1 [Cerdulatinib Hydrochloride] | > 30 µM (inactive) | 0.033 µM (active) | > 30 µM (inactive) | > 30 µM (inactive) | > 30 µM (inactive)
6 | O=C(Nc1nc2cccc(-c3ccc(CN4CCS(=O)(=O)CC4)cc3)n2n1)C1CC1 [FILGOTINIB] | > 30 µM (inactive) | > 30 µM (inactive) | > 30 µM (inactive) | > 30 µM (inactive) | > 30 µM (inactive)
7 | Cc1cccc(-c2nn3c(c2-c2ccnc4ccc(C(N)=O)cc24)CCC3)n1 [GALUNISERTIB] | > 30 µM (inactive) | > 30 µM (inactive) | > 30 µM (inactive) | > 30 µM (inactive) | > 30 µM (inactive)
8 | O=C(Nc1cc(C(F)(F)F)cc(C(F)(F)F)c1)c1cc(Cl)ccc1O [IMD-0354] | > 30 µM (inactive) | > 30 µM (inactive) | > 30 µM (inactive) | > 30 µM (inactive) | > 30 µM (inactive)
9 | CNC(=O)c1cccc2cc(Oc3ccnc4cc(OCC5(N)CC5)c(OC)cc34)ccc12 [LUCITANIB] | > 30 µM (inactive) | > 30 µM (inactive) | > 30 µM (inactive) | > 30 µM (inactive) | > 30 µM (inactive)
10 | CNC(=O)c1nn(C)c2c1C(C)(C)Cc1cnc(Nc3ccc(N4CCN(C)CC4)cc3)nc1-2 [MILCICLIB] | > 30 µM (inactive) | 2.06 µM (active) | > 30 µM (inactive) | > 30 µM (inactive) | > 30 µM (inactive)
11 | COc1ncc(-c2ccc3nccc(-c4ccnnc4)c3c2)cc1NS(=O)(=O)c1ccc(F)cc1F [OMIPALISIB] | > 30 µM (inactive) | > 30 µM (inactive) | > 30 µM (inactive) | > 30 µM (inactive) | > 30 µM (inactive)
12 | CCOc1cc2ncc(C#N)c(Nc3ccc(F)c(Cl)c3)c2cc1NC(=O)/C=C/CN(C)C [PELITINIB] | > 30 µM (inactive) | 0.189 µM (active) | > 30 µM (inactive) | > 30 µM (inactive) | > 30 µM (inactive)
13 | CNC(=O)c1cc(Oc2ccc(NC(=O)Nc3cc(C(C)(C)C)nn3-c3ccc4ncccc4c3)c(F)c2)ccn1 [REBASTINIB] | > 30 µM (inactive) | > 30 µM (inactive) | > 30 µM (inactive) | 2.76 µM (active) | > 30 µM (inactive)
14 | CO[C@H]1C[C@@H]2CC[C@@H](C)[C@@](O)(O2)C(=O)C(=O)N2CCCC[C@H]2C(=O)O[C@H]([C@H](C)C[C@@H]2CC[C@@H](OP(C)(C)=O)[C@H](OC)C2)CC(=O)[C@H](C)/C=C(\C)[C@@H](O)[C@@H](OC)C(=O)[C@H](C)C[C@H](C)/C=C/C=C/C=C/1C [RIDAFOROLIMUS] | > 30 µM (inactive) | > 30 µM (inactive) | > 30 µM (inactive) | > 30 µM (inactive) | > 30 µM (inactive)
15 | N#CC1(c2ccc(NC(=O)c3cccnc3NCc3ccncc3)cc2)CCCC1 [RIVOCERANIB] | > 30 µM (inactive) | > 30 µM (inactive) | > 30 µM (inactive) | > 30 µM (inactive) | > 30 µM (inactive)
16 | O=c1[nH]ccc2cc(OC3CCNCC3)ccc12 [SAR-407899 FREE BASE] | > 30 µM (inactive) | > 30 µM (inactive) | > 30 µM (inactive) | > 30 µM (inactive) | > 30 µM (inactive)

Second part, the molecule after the results:

Row | Kd [1] | Kd [2] | Kd [3] | Kd [4] | Kd [5] | Structure (SMILES)
17 | > 30 µM (inactive) | > 30 µM (inactive) | > 30 µM (inactive) | > 30 µM (inactive) | > 30 µM (inactive) | Cc1cc(C(=O)NOCCO)c(Nc2ccc(I)cc2F)n(C)c1=O [AZD-8330]
18 | > 30 µM (inactive) | > 30 µM (inactive) | > 30 µM (inactive) | > 30 µM (inactive) | > 30 µM (inactive) | CCn1c(C(=O)N(C2CC2)C2CC2)cc2c3c(ncn3C)c(Nc3cc(C)n(C)n3)nc21 [BMS-911543]
19 | > 30 µM (inactive) | > 30 µM (inactive) | > 30 µM (inactive) | 0.566 µM (active) | > 30 µM (inactive) | COc1cc2ncnc(Oc3cccc(NC(=O)Nc4cc(C(C)(C)C(F)(F)F)on4)c3)c2cc1OC [CEP-32496]
20 | > 30 µM (inactive) | > 30 µM (inactive) | > 30 µM (inactive) | > 30 µM (inactive) | > 30 µM (inactive) | COCC(=O)NC/C=C/c1ccc2ncnc(Nc3ccc(Oc4ccc(C)nc4)c(C)c3)c2c1 [CP-724714]
21 | > 30 µM (inactive) | > 30 µM (inactive) | > 30 µM (inactive) | > 30 µM (inactive) | > 30 µM (inactive) | C#Cc1cccc(Nc2ncnc3cc(OC)c(OCCCCCCC(=O)NO)cc23)c1 [CUDC-101]
22 | > 30 µM (inactive) | > 30 µM (inactive) | > 30 µM (inactive) | > 30 µM (inactive) | > 30 µM (inactive) | COc1ccc(S(=O)(=O)N(C(C)=O)c2ccccc2/C=C/c2cc[n+]([O-])cc2)cc1 [HMN-214]
23 | > 30 µM (inactive) | > 30 µM (inactive) | > 30 µM (inactive) | > 30 µM (inactive) | > 30 µM (inactive) | NC1(c2ccc(-c3nc4ccn5c(=O)[nH]nc5c4cc3-c3ccccc3)cc2)CCC1 [MK-2206]
24 | > 30 µM (inactive) | > 30 µM (inactive) | > 30 µM (inactive) | > 30 µM (inactive) | > 30 µM (inactive) | CN(C[C@@H]1COCCO1)S(=O)(=O)Nc1ccc2ccc3ncc(-c4cnn(C)c4)cc3c(=O)c2c1 [MK-2461]
25 | > 30 µM (inactive) | > 30 µM (inactive) | > 30 µM (inactive) | > 30 µM (inactive) | > 30 µM (inactive) | Cn1cc(-c2cnc3ccc4ccc(CS(=O)(=O)NCc5ccccn5)cc4c(=O)c3c2)cn1 [MK-8033]
26 | > 30 µM (inactive) | 2.19 µM (active) | > 30 µM (inactive) | > 30 µM (inactive) | > 30 µM (inactive) | Cc1nc(Nc2n[nH]c3c2CN(C(=O)N[C@H](CN(C)C)c2ccccc2)C3(C)C)c2sccc2n1 [PF-03758309]
